Laboratory results as given in patent publication US10870647B2, “Imidazopyridine derivative, method for preparing same, and pharmaceutical composition containing same as active ingredient for preventing or treating cancer” (DAEGU-GYEONGBUK MEDICAL INNOVATION FOUNDATION, priority 2016, dated 2020).

Tests used:
Assay in all cases: Kinase selectivity, scanMAX Kinase assay panel (DiscoverX), % control at 1 uM
Type in all cases: binding
[1] = target: T1, scanMAX Kinase assay panel (Homo sapiens, UniProt O75747); conditions: PIK3C2G; 1 uM; read-out: Percent Control (%)
T1 construct: purchased DiscoverX
T1 sequence (O75747 1-1486): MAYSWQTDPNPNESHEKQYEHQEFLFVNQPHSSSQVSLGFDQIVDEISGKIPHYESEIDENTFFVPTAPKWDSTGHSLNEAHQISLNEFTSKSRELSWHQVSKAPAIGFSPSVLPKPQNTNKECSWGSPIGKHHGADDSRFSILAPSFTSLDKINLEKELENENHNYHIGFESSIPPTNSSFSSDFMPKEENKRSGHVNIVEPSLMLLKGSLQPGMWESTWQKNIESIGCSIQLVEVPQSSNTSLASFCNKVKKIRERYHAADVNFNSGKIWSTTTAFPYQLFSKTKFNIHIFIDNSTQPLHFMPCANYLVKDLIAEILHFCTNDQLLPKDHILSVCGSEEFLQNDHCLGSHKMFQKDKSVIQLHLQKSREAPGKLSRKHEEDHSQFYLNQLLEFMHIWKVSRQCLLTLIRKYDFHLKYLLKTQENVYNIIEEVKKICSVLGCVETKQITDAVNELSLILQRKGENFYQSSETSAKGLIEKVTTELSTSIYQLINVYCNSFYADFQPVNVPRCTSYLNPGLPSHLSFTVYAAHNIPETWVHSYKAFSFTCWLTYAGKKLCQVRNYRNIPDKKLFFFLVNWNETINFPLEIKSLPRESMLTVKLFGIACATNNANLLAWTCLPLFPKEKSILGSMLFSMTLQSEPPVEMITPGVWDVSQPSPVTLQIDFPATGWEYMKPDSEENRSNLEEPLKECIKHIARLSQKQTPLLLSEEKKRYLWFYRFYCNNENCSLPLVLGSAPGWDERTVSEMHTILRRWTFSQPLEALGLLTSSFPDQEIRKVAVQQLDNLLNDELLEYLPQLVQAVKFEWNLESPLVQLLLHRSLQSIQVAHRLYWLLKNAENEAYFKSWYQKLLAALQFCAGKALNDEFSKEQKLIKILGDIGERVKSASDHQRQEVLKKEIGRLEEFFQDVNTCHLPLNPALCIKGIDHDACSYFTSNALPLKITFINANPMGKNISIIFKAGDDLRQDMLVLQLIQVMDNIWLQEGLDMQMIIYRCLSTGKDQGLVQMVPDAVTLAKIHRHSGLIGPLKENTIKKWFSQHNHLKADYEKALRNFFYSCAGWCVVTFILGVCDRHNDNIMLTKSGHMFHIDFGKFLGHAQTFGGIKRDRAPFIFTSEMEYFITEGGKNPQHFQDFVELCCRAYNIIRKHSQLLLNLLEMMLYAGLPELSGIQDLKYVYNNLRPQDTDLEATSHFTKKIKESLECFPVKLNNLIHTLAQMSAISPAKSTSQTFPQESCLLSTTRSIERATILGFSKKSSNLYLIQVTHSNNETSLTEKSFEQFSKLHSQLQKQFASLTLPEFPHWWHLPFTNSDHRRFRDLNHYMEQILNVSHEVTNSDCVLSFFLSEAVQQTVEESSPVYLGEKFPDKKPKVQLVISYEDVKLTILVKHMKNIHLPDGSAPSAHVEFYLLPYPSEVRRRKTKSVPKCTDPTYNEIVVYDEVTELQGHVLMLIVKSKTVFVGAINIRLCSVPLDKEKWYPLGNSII
Summary of the method: (§1)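 1 uM cpd (DMSO) per kinase; % ctrl = [cpd − pos ctrl]/[neg ctrl − pos ctrl] × 100; hit if <35.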

[2] = target: T2, scanMAX Kinase assay panel (Homo sapiens, UniProt O94804); conditions: LOK; 1 uM; read-out: Percent Control (%)
T2 construct: purchased DiscoverX
Summary of the method: as §1

[3] = target: T3, scanMAX Kinase assay panel (Homo sapiens, UniProt P42336, H1047Y); conditions: PIK3CA (H1047Y); 1 uM; read-out: Percent Control (%)
T3 construct: purchased DiscoverX
Summary of the method: as §1

[4] = target: T4, scanMAX Kinase assay panel (Homo sapiens, UniProt P49137); conditions: MAPKAPK2; 1 uM; read-out: Percent Control (%)
T4 construct: purchased DiscoverX
Summary of the method: as §1

[5] = target: T5, scanMAX Kinase assay panel (Homo sapiens, UniProt Q00526); conditions: CDK3; 1 uM; read-out: Percent Control (%)
T5 construct: purchased DiscoverX
Summary of the method: as §1

[6] = target: T6, scanMAX Kinase assay panel (Homo sapiens, UniProt Q13233); conditions: MAP3K1; 1 uM; read-out: Percent Control (%)
T6 construct: purchased DiscoverX
Summary of the method: as §1

[7] = target: T7, scanMAX Kinase assay panel (Homo sapiens, UniProt Q8IW41); conditions: MAPKAPK5; 1 uM; read-out: Percent Control (%)
T7 construct: purchased DiscoverX
T7 sequence (Q8IW41 1-473): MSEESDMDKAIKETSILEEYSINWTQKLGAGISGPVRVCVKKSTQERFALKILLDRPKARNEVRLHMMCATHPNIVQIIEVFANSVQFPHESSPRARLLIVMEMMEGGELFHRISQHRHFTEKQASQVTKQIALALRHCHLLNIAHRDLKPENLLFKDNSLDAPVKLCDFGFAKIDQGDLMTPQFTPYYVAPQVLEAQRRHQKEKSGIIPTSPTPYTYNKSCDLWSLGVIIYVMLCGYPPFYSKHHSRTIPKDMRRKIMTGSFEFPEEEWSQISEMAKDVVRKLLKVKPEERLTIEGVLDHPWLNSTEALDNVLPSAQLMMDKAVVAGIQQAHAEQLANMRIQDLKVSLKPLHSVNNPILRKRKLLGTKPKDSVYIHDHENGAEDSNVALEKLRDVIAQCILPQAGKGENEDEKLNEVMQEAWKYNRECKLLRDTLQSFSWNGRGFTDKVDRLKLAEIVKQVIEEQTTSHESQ
Summary of the method: as §1

[8] = target: T8, scanMAX Kinase assay panel (Homo sapiens, UniProt Q9H3Y6); conditions: SRMS; 1 uM; read-out: Percent Control (%)
T8 construct: purchased DiscoverX
Summary of the method: as §1

T2 sequence (O94804 whole entry): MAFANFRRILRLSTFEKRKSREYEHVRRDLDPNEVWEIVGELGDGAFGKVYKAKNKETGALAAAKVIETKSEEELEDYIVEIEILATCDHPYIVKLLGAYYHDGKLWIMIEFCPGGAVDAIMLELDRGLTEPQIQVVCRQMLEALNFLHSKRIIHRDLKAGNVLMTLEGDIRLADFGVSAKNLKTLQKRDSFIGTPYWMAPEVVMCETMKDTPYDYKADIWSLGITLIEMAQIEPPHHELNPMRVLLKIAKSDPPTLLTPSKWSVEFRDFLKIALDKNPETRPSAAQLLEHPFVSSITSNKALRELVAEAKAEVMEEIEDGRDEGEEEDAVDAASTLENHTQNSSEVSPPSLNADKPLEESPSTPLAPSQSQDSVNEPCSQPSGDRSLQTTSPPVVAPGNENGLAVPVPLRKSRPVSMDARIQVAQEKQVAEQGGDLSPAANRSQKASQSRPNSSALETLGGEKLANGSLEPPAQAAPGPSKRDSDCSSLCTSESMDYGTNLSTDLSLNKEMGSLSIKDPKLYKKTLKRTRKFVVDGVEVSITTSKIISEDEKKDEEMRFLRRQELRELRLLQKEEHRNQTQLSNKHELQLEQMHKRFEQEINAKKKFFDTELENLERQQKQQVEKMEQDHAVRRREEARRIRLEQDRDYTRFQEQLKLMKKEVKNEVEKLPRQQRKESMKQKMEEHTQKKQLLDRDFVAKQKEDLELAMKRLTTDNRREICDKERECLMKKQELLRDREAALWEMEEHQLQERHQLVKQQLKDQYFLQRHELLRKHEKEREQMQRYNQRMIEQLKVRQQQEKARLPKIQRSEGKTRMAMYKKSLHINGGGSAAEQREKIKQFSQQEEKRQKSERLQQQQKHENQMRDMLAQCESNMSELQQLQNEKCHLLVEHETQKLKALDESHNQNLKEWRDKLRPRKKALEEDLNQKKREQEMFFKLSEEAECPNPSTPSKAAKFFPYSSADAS
T8 sequence (Q9H3Y6 whole entry): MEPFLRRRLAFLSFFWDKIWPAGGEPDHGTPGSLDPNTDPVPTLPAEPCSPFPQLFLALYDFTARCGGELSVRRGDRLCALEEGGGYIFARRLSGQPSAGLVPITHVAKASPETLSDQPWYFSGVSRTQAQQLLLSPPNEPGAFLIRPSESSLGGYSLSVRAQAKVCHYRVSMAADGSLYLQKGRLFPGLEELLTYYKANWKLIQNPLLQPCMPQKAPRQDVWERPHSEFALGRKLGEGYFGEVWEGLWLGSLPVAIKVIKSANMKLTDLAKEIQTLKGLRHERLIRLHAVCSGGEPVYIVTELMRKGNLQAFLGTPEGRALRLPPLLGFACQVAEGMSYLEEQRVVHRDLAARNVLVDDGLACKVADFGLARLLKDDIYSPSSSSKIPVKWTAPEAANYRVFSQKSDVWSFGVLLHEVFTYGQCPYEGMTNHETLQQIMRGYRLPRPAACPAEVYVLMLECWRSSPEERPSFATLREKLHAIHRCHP
T3 sequence (P42336 whole entry H1047Y): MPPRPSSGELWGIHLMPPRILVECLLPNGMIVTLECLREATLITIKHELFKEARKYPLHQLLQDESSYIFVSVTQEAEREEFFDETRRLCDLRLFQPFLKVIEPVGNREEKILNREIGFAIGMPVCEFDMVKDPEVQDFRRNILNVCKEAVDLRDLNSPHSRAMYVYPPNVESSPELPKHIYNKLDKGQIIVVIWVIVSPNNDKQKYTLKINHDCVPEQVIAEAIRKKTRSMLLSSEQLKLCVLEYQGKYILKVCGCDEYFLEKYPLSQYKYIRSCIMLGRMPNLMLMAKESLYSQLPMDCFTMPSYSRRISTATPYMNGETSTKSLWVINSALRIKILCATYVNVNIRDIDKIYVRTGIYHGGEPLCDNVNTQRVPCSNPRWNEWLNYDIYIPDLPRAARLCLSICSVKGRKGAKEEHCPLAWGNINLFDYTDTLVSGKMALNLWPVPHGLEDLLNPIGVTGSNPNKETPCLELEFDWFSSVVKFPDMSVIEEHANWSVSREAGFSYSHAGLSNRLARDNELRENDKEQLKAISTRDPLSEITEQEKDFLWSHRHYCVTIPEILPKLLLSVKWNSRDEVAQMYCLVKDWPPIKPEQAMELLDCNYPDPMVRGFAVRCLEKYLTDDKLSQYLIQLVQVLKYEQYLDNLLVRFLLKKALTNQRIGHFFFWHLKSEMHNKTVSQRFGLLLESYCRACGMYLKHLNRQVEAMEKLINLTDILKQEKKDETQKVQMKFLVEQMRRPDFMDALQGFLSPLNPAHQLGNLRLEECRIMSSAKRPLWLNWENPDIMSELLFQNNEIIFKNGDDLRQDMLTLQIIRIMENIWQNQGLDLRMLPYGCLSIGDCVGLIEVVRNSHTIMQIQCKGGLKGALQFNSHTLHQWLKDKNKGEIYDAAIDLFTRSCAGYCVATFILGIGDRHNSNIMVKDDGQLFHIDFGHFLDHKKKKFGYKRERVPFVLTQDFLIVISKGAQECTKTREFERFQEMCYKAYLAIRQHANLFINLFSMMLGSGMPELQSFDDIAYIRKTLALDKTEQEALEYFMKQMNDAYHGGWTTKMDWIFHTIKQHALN
T6 sequence (Q13233 whole entry): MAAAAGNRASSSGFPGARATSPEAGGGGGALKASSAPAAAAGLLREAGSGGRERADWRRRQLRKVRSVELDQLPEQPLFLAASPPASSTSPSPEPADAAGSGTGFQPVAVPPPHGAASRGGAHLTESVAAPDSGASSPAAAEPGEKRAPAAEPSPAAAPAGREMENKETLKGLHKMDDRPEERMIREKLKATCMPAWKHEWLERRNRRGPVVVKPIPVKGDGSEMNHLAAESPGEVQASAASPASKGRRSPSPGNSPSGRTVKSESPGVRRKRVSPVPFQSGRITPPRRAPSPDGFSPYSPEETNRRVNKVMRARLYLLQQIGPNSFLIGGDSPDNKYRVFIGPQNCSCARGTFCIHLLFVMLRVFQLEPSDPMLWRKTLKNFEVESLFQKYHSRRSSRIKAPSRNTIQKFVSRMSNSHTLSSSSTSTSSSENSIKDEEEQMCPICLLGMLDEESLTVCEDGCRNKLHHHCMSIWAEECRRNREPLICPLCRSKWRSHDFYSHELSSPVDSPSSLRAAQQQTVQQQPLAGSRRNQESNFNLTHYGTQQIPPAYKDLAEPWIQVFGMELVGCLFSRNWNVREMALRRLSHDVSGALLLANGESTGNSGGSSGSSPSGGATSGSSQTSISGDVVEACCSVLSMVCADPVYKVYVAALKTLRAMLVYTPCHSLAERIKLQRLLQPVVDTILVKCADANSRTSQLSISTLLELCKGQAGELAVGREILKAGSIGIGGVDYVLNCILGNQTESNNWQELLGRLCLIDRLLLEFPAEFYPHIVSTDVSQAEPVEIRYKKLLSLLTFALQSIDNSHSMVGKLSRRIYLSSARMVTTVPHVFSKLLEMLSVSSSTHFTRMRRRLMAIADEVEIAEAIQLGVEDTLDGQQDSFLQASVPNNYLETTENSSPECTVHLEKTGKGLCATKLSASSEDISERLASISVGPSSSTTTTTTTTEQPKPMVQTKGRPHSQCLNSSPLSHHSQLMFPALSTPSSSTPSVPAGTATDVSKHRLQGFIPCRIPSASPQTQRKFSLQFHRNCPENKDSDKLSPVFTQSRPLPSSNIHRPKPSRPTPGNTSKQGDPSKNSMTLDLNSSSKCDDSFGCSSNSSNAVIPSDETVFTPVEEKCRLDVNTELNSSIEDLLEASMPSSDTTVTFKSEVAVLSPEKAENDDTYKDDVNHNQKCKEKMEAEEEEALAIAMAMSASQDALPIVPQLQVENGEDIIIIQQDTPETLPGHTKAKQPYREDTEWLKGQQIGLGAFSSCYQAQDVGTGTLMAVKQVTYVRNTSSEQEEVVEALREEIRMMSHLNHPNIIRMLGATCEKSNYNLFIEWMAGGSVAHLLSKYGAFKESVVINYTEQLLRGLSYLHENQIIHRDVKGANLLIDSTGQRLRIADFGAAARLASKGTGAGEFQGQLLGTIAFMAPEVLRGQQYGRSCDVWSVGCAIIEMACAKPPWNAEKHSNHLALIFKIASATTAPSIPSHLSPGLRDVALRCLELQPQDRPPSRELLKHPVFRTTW
T4 sequence (P49137 whole entry): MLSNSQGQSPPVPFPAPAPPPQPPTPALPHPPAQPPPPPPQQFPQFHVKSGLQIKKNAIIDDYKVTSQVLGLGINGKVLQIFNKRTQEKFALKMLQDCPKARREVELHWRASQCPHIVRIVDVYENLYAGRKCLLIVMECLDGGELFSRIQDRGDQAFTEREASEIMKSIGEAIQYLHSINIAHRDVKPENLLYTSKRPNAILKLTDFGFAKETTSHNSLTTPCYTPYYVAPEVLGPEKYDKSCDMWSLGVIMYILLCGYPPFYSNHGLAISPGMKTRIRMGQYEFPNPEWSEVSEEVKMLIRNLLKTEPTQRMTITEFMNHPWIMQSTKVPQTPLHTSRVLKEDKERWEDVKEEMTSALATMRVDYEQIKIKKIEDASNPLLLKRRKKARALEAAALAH
T5 sequence (Q00526 whole entry): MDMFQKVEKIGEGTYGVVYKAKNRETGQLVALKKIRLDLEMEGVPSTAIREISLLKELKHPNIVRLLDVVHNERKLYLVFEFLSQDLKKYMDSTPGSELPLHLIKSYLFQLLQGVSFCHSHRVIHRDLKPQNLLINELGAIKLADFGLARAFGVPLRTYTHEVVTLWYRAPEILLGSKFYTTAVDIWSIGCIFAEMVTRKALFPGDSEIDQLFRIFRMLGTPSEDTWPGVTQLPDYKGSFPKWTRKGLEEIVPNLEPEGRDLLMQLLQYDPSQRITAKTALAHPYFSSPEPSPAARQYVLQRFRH

## Cc1ccc(NC(=O)C2(C(=O)Nc3ccc(F)cc3)CC2)cc1C#Cc1cnc2c(Nc3cnn(C(C)C)c3)cccn12 [Example 78]
[1]
  remaining binding at 1 µM: 100%
[2]
  remaining binding at 1 µM: 0%
[3]
  remaining binding at 1 µM: 100%
[4]
  remaining binding at 1 µM: 98%
[5]
  remaining binding at 1 µM: 86%
[6]
  remaining binding at 1 µM: 94%
[7]
  remaining binding at 1 µM: 100%
[8]
  remaining binding at 1 µM: 94%

## Cc1cn(-c2cc(NC(=O)c3ccc(C)c(C#Cc4cnc5c(Nc6cnn(C)c6)cccn45)c3)cc(C(F)(F)F)c2)cn1 [Example 12, 4-methyl-N-(3-(4-methyl-1H-imidazol-1-yl)-5-(trifluoromethyl)phenyl)-3-((8-((1-methyl-1H-pyrazol-4-yl)amino)imidazo[1,2-a]pyridin-3-yl)ethynyl)benzamide]
[1]
  remaining binding at 1 µM: 100%
[2]
  remaining binding at 1 µM: 0%
[3]
  remaining binding at 1 µM: 84%
[4]
  remaining binding at 1 µM: 81%
[5]
  remaining binding at 1 µM: 89%
[6]
  remaining binding at 1 µM: 67%
[7]
  remaining binding at 1 µM: 100%
[8]
  remaining binding at 1 µM: 75%

## Cc1ccc(C(=O)Nc2ccc(CN3CCN(C)CC3)c(C(F)(F)F)c2)cc1C#Cc1cnc2c(Nc3cnn(C)c3)cccn12 [Example 1, 4-methyl-3-((8-((1-methyl-1H-pyrazol-4-yl)amino)imidazo[1,2-a]pyridin-3-yl)ethynyl)-N-(4-((4-methylpiperazin-1-yl)methyl)-3-(trifluoromethyl)phenyl)benzamide]
[1]
  remaining binding at 1 µM: 75%
[2]
  remaining binding at 1 µM: 0%
[3]
  remaining binding at 1 µM: 74%
[4]
  remaining binding at 1 µM: 100%
[5]
  remaining binding at 1 µM: 62%
[6]
  remaining binding at 1 µM: 44%
[7]
  remaining binding at 1 µM: 100%
[8]
  remaining binding at 1 µM: 8%
